Values after ≈ are worked out from the molar mass of the structure shown. Active and inactive are the calls of the source. The calls are words filed in the database; no cut-off is given here.
Columns and labels:
Streptococcus pyogenes [1] = test: Antibacterial activity against Streptococcus pyogenes group A clinical isolate assessed as susceptibility level by broth microdilution method; type: functional
[2] = tested on: Staphylococcus haemolyticus; test: Antibacterial activity against methicillin resistant coagulase-negative Staphylococcus haemolyticus clinical isolate by broth microdilution method; type: functional
Staphylococcus capitis [3] = test: Antibacterial activity against methicillin resistant coagulase-negative Staphylococcus capitis clinical isolate by broth microdilution method; type: functional
Streptococcus agalactiae [4] = test: Antibacterial activity against Streptococcus agalactiae group B clinical isolate by broth microdilution method; type: functional
[5] = tested on: Staphylococcus epidermidis; test: Antibacterial activity against methicillin resistant Staphylococcus epidermidis ATCC 35984 by broth microdilution method; type: functional
[6] = Antibacterial activity against methicillin resistant coagulase-negative Staphylococcus hominis subsp. novobiosepticus clinical isolate assessed as susceptibility level by broth microdilution method; type: functional
Streptococcus pyogenes [7] = test: Antibacterial activity against Streptococcus pyogenes MED 2040 by broth microdilution method; type: functional
Streptococcus pneumoniae [8] = test: Antibacterial activity against penicillin intermediate Streptococcus pneumoniae clinical isolate by broth microdilution method; type: functional
Streptococcus oralis [9] = test: Antibacterial activity against Streptococcus oralis clinical isolate assessed as susceptibility level by broth microdilution method; type: functional
Staphylococcus aureus [10] = test: Antibacterial activity against methicillin resistant Staphylococcus aureus clinical isolate assessed as susceptibility level by broth microdilution method; type: functional
Enterococcus faecalis [11] = test: Antibacterial activity against vancomycin resistant Enterococcus faecalis VanB clinical isolate by broth microdilution method; type: functional
Enterococcus faecalis [12] = test: Antibacterial activity against vancomycin resistant Enterococcus faecalis VanB clinical isolate assessed as susceptibility level by broth microdilution method; type: functional
[13] = tested on: Staphylococcus epidermidis; test: Antibacterial activity against methicillin resistant Staphylococcus epidermidis clinical isolate assessed as susceptibility level by broth microdilution method; type: functional
Streptococcus viridans [14] = test: Antibacterial activity against Streptococcus viridans clinical isolate by broth microdilution method; type: functional
[15] = tested on: Staphylococcus auricularis; test: Antibacterial activity against methicillin resistant coagulase-negative Staphylococcus auricularis clinical isolate by broth microdilution method; type: functional
[16] = tested on: Streptococcus constellatus; test: Antibacterial activity against Streptococcus constellatus clinical isolate assessed as susceptibility level by broth microdilution method; type: functional
Enterococcus faecium [17] = test: Antibacterial activity against vancomycin resistant Enterococcus faecium VanB clinical isolate by broth microdilution method; type: functional
Enterococcus faecium [18] = test: Antibacterial activity against vancomycin resistant Enterococcus faecium VanA clinical isolate assessed as susceptibility level by broth microdilution method; type: functional
Streptococcus pneumoniae [19] = test: Antibacterial activity against penicillin resistant Streptococcus pneumoniae clinical isolate by broth microdilution method; type: functional
Enterococcus faecalis [20] = tested on: Enterococcus faecalis
Streptococcus mitis [21] = test: Antibacterial activity against Streptococcus mitis clinical isolate assessed as susceptibility level by broth microdilution method; type: functional
[22] = tested on: Streptococcus constellatus; test: Antibacterial activity against Streptococcus constellatus clinical isolate by broth microdilution method; type: functional
[23] = tested on: Staphylococcus saprophyticus; test: Antibacterial activity against methicillin resistant coagulase-negative Staphylococcus saprophyticus clinical isolate by broth microdilution method; type: functional
[24] = tested on: Staphylococcus saprophyticus; test: Antibacterial activity against methicillin resistant coagulase-negative Staphylococcus saprophyticus clinical isolate assessed as susceptibility level by broth microdilution method; type: functional
Streptococcus viridans [25] = test: Antibacterial activity against Streptococcus viridans clinical isolate assessed as susceptibility level by broth microdilution method; type: functional
[26] = tested on: Streptococcus intermedius; test: Antibacterial activity against Streptococcus intermedius clinical isolate assessed as susceptibility level by broth microdilution method; type: functional
[27] = tested on: Staphylococcus auricularis; test: Antibacterial activity against methicillin resistant coagulase-negative Staphylococcus auricularis clinical isolate assessed as susceptibility level by broth microdilution method; type: functional
[28] = Antibacterial activity against methicillin resistant coagulase-negative Staphylococcus hominis subsp. novobiosepticus clinical isolate by broth microdilution method; type: functional
Streptococcus mitis [29] = test: Antibacterial activity against Streptococcus mitis clinical isolate by broth microdilution method; type: functional
Staphylococcus aureus [30] = test: Antibacterial activity against methicillin resistant Staphylococcus aureus clinical isolate by broth microdilution method; type: functional; details: for MIC50 / MIC90: Staphylococcus aureus
Streptococcus pneumoniae [31] = test: Antibacterial activity against penicillin intermediate Streptococcus pneumoniae clinical isolate assessed as susceptibility level by broth microdilution method; type: functional
[32] = tested on: Streptococcus intermedius; test: Antibacterial activity against Streptococcus intermedius clinical isolate by broth microdilution method; type: functional
Streptococcus oralis [33] = test: Antibacterial activity against Streptococcus oralis clinical isolate by broth microdilution method; type: functional
Streptococcus pneumoniae [34] = test: Antibacterial activity against multidrug-resistant Streptococcus pneumoniae clinical isolate by broth microdilution method; type: functional
[35] = tested on: Staphylococcus epidermidis; test: Antibacterial activity against methicillin resistant Staphylococcus epidermidis clinical isolate by broth microdilution method; type: functional
Enterococcus faecium [36] = test: Antibacterial activity against vancomycin resistant Enterococcus faecium VanA clinical isolate by broth microdilution method; type: functional
Enterococcus faecium [37] = test: Antibacterial activity against vancomycin resistant Enterococcus faecium VanB clinical isolate assessed as susceptibility level by broth microdilution method; type: functional
Staphylococcus capitis [38] = test: Antibacterial activity against methicillin resistant coagulase-negative Staphylococcus capitis clinical isolate assessed as susceptibility level by broth microdilution method; type: functional
Streptococcus agalactiae [39] = test: Antibacterial activity against Streptococcus agalactiae MED 2038 by broth microdilution method; type: functional
[40] = tested on: Staphylococcus haemolyticus; test: Antibacterial activity against methicillin resistant coagulase-negative Staphylococcus haemolyticus clinical isolate assessed as susceptibility level by broth microdilution method; type: functional
Streptococcus agalactiae [41] = test: Antibacterial activity against Streptococcus agalactiae group B clinical isolate assessed as susceptibility level by broth microdilution method; type: functional
Streptococcus pyogenes [42] = test: Antibacterial activity against Streptococcus pyogenes group A clinical isolate by broth microdilution method; type: functional
Enterococcus faecalis [43] = test: Antibacterial activity against vancomycin resistant Enterococcus faecalis VanA clinical isolate by broth microdilution method; type: functional
Enterococcus faecalis [44] = test: Antibacterial activity against vancomycin resistant Enterococcus faecalis VanA clinical isolate assessed as susceptibility level by broth microdilution method; type: functional

CC(=O)NC[C@H]1CN(c2ccc(N3CCOCC3)c(F)c2)C(=O)O1 [LINEZOLID]
Activity (Streptococcus pyogenes [1]): 98%
MIC50 [2]: 1 µg/mL (≈ 2.96 µM)
MIC90 [2]: 2 µg/mL (≈ 5.93 µM)
MIC50 (Staphylococcus capitis [3]): 1 µg/mL (≈ 2.96 µM)
MIC90 (Staphylococcus capitis [3]): 2 µg/mL (≈ 5.93 µM)
MIC50 (Streptococcus agalactiae [4]): 1 µg/mL (≈ 2.96 µM)
MIC90 (Streptococcus agalactiae [4]): 1 µg/mL (≈ 2.96 µM)
MIC [5]: 2 µg/mL (≈ 5.93 µM)
Activity [6]: 100%
MIC (Streptococcus pyogenes [7]): 1 µg/mL (≈ 2.96 µM)
MIC50 (Streptococcus pneumoniae [8]): 1 µg/mL (≈ 2.96 µM)
MIC90 (Streptococcus pneumoniae [8]): 1 µg/mL (≈ 2.96 µM)
Activity (Streptococcus oralis [9]): 100%
Activity (Staphylococcus aureus [10]): 99%
MIC (Enterococcus faecalis [11]): 0.5 µg/mL (≈ 1.48 µM)
Activity (Enterococcus faecalis [12]): 100%
Activity [13]: 100%
MIC (Streptococcus viridans [14]): 0.5 µg/mL (≈ 1.48 µM)
MIC50 (Streptococcus viridans [14]): inactive
MIC90 (Streptococcus viridans [14]): inactive
MIC50 [15]: 1 µg/mL (≈ 2.96 µM)
MIC90 [15]: 2 µg/mL (≈ 5.93 µM)
Activity [16]: 100%
MIC50 (Enterococcus faecium [17]): 2 µg/mL (≈ 5.93 µM)
MIC90 (Enterococcus faecium [17]): 2 µg/mL (≈ 5.93 µM)
Activity (Enterococcus faecium [18]): 99%
MIC50 (Streptococcus pneumoniae [19]): 1 µg/mL (≈ 2.96 µM)
MIC90 (Streptococcus pneumoniae [19]): 1 µg/mL (≈ 2.96 µM)
MIC50 (Enterococcus faecalis [20]): inactive
MIC90 (Enterococcus faecalis [20]): inactive
Activity (Streptococcus mitis [21]): 100%
MIC [22]: 0.5 µg/mL (≈ 1.48 µM)
MIC50 [22]: inactive
MIC90 [22]: inactive
MIC50 [23]: 1 µg/mL (≈ 2.96 µM)
MIC90 [23]: 2 µg/mL (≈ 5.93 µM)
Activity [24]: 100%
Activity (Streptococcus viridans [25]): 100%
Activity [26]: 100%
Activity [27]: 100%
MIC50 [28]: 1 µg/mL (≈ 2.96 µM)
MIC90 [28]: 2 µg/mL (≈ 5.93 µM)
MIC (Streptococcus mitis [29]): 0.5 µg/mL (≈ 1.48 µM)
MIC50 (Streptococcus mitis [29]): inactive
MIC90 (Streptococcus mitis [29]): inactive
Activity (Staphylococcus aureus [30]): 99%
MIC50 (Staphylococcus aureus [30]): 2 µg/mL (≈ 5.93 µM)
MIC90 (Staphylococcus aureus [30]): 4 µg/mL (≈ 11.9 µM)
Activity (Streptococcus pneumoniae [31]): 100%
MIC [32]: 0.5 µg/mL (≈ 1.48 µM)
MIC50 [32]: inactive
MIC90 [32]: inactive
MIC (Streptococcus oralis [33]): 0.5 µg/mL (≈ 1.48 µM)
MIC50 (Streptococcus oralis [33]): inactive
MIC90 (Streptococcus oralis [33]): inactive
MIC50 (Streptococcus pneumoniae [34]): 1 µg/mL (≈ 2.96 µM)
MIC90 (Streptococcus pneumoniae [34]): 1 µg/mL (≈ 2.96 µM)
MIC50 [35]: 1 µg/mL (≈ 2.96 µM)
MIC90 [35]: 1 µg/mL (≈ 2.96 µM)
MIC50 (Enterococcus faecium [36]): 2 µg/mL (≈ 5.93 µM)
MIC90 (Enterococcus faecium [36]): 2 µg/mL (≈ 5.93 µM)
Activity (Enterococcus faecium [37]): 96%
Activity (Staphylococcus capitis [38]): 100%
MIC (Streptococcus agalactiae [39]): 1 µg/mL (≈ 2.96 µM)
Activity [40]: 100%
Activity (Streptococcus agalactiae [41]): 100%

CCCCCCCCCC(=O)N[C@@H](Cc1c[nH]c2ccccc12)C(=O)N[C@H](CC(N)=O)C(=O)N[C@@H](CC(=O)O)C(=O)N[C@@H]1C(=O)NCC(=O)N[C@@H](CCCN)C(=O)N[C@@H](CC(=O)O)C(=O)N[C@H](C)C(=O)N[C@@H](CC(=O)O)C(=O)NCC(=O)N[C@H](CO)C(=O)N[C@@H]([C@H](C)CC(=O)O)C(=O)N[C@@H](CC(=O)c2ccccc2N)C(=O)O[C@@H]1C
Activity (Streptococcus pyogenes [1]): 100%
MIC50 [2]: 0.25 µg/mL (≈ 0.154 µM)
MIC90 [2]: 1 µg/mL (≈ 0.617 µM)
MIC50 (Staphylococcus capitis [3]): 0.25 µg/mL (≈ 0.154 µM)
MIC90 (Staphylococcus capitis [3]): 1 µg/mL (≈ 0.617 µM)
MIC50 (Streptococcus agalactiae [4]): 0.25 µg/mL (≈ 0.154 µM)
MIC90 (Streptococcus agalactiae [4]): 0.25 µg/mL (≈ 0.154 µM)
Activity [6]: 100%
MIC50 (Streptococcus pneumoniae [8]): 0.12 µg/mL (≈ 0.074 µM)
MIC90 (Streptococcus pneumoniae [8]): 0.5 µg/mL (≈ 0.309 µM)
Activity (Streptococcus oralis [9]): 100%
Activity (Staphylococcus aureus [10]): 98%
MIC (Enterococcus faecalis [11]): 0.5 µg/mL (≈ 0.309 µM)
Activity (Enterococcus faecalis [12]): 100%
Activity [13]: 100%
MIC (Streptococcus viridans [14]): 0.25 µg/mL (≈ 0.154 µM)
MIC50 (Streptococcus viridans [14]): inactive
MIC90 (Streptococcus viridans [14]): inactive
MIC50 [15]: 0.25 µg/mL (≈ 0.154 µM)
MIC90 [15]: 1 µg/mL (≈ 0.617 µM)
Activity [16]: 100%
MIC50 (Enterococcus faecium [17]): 2 µg/mL (≈ 1.23 µM)
MIC90 (Enterococcus faecium [17]): 4 µg/mL (≈ 2.47 µM)
Activity (Enterococcus faecium [18]): 98%
MIC50 (Streptococcus pneumoniae [19]): 0.12 µg/mL (≈ 0.074 µM)
MIC90 (Streptococcus pneumoniae [19]): 0.12 µg/mL (≈ 0.074 µM)
MIC50 (Enterococcus faecalis [20]): inactive
MIC90 (Enterococcus faecalis [20]): inactive
Activity (Streptococcus mitis [21]): 100%
MIC [22]: 0.25 µg/mL (≈ 0.154 µM)
MIC50 [22]: inactive
MIC90 [22]: inactive
MIC50 [23]: 0.25 µg/mL (≈ 0.154 µM)
MIC90 [23]: 1 µg/mL (≈ 0.617 µM)
Activity [24]: 100%
Activity (Streptococcus viridans [25]): 100%
Activity [26]: 100%
MIC (Streptococcus pyogenes [42]): ≤ 0.03 µg/mL
MIC50 (Streptococcus pyogenes [42]): ≤ 0.03 µg/mL
MIC90 (Streptococcus pyogenes [42]): 0.25 µg/mL (≈ 0.154 µM)
Activity [27]: 100%
MIC50 [28]: 0.25 µg/mL (≈ 0.154 µM)
MIC90 [28]: 1 µg/mL (≈ 0.617 µM)
MIC (Streptococcus mitis [29]): 0.25 µg/mL (≈ 0.154 µM)
MIC50 (Streptococcus mitis [29]): inactive
MIC90 (Streptococcus mitis [29]): inactive
Activity (Staphylococcus aureus [30]): 98%
MIC50 (Staphylococcus aureus [30]): 0.25 µg/mL (≈ 0.154 µM)
MIC90 (Staphylococcus aureus [30]): 0.5 µg/mL (≈ 0.309 µM)
MIC [32]: 0.25 µg/mL (≈ 0.154 µM)
MIC50 [32]: inactive
MIC90 [32]: inactive
MIC (Streptococcus oralis [33]): 0.25 µg/mL (≈ 0.154 µM)
MIC50 (Streptococcus oralis [33]): inactive
MIC90 (Streptococcus oralis [33]): inactive
MIC50 (Streptococcus pneumoniae [34]): 0.12 µg/mL (≈ 0.074 µM)
MIC90 (Streptococcus pneumoniae [34]): 0.12 µg/mL (≈ 0.074 µM)
MIC50 [35]: 0.5 µg/mL (≈ 0.309 µM)
MIC90 [35]: 1 µg/mL (≈ 0.617 µM)
MIC50 (Enterococcus faecalis [43]): 1 µg/mL (≈ 0.617 µM)
MIC90 (Enterococcus faecalis [43]): 2 µg/mL (≈ 1.23 µM)
MIC50 (Enterococcus faecium [36]): 2 µg/mL (≈ 1.23 µM)
MIC90 (Enterococcus faecium [36]): 4 µg/mL (≈ 2.47 µM)
Activity (Enterococcus faecium [37]): 93%
Percent of isolates susceptible (Enterococcus faecalis [44]): 100%
Activity (Staphylococcus capitis [38]): 100%
Activity [40]: 100%
Activity (Streptococcus agalactiae [41]): 100%

Reference: ChEMBL document CHEMBL1275440, “In vitro activity of telavancin against resistant gram-positive bacteria” (2008)
